Measurements: PubChem BioAssay (NCI)
Values joined by “and” are separate entries in the source; they are usually repeats but may differ in a detail not shown here. Equal values may be shown once.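 Following 48 hours of exposure in 96-well plates, responses at five concentrations were used to interpolate endpoints linearly. GI50: concentration for 50% inhibition of growth. The concentration for full growth arrest is given as TGI.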

What was measured:
Assay in all cases: NCI tumour cell line growth inhibition, 48 h
XF 498 CNS = system: XF 498 CNS
KM20L2 colon = system: KM20L2 colon
RXF-631 renal = system: RXF-631 renal
P388 leukemia = system: P388 leukemia
P388/ADR leukemia = system: P388/ADR leukemia
SN12K1 renal = system: SN12K1 renal

| Structure (SMILES) | TGI (XF 498 CNS) | TGI (KM20L2 colon) | other results |
| --- | --- | --- | --- |
| CCCc1cc(-c2ccc(-c3cc(CCC)c(C=O)[nH]3)s2)[nH]c1C=O | > 100 µM | – | – |
| Oc1ccc(Cn2c(-c3ccc(O)cc3)nc3ccccc32)cc1 | > 100 µM | > 100 µM | TGI (RXF-631 renal): > 100 µM |
| CC(C)c1cccc(C(C)C)c1NC(=O)C(=O)C1SC(=S)NC1=O (stereo not given) | > 100 µM | > 100 µM | TGI (RXF-631 renal): > 100 µM |
| Cc1ccccc1NC(=O)CSc1nnc(Cc2ccccc2)o1 | – | > 100 µM | – |
| CCN(CC)CCC(=O)O[C@H]1CC[C@H](CC(C)[C@H]2CC(=O)C(C)C=C(C)[C@H](OC(=O)CCN(CC)CC)C(OC)C(=O)[C@@H](C)CC(C)/C=C/C=C/C=C(C)C(OC)CC3CC[C@H](C)[C@](O)(O3)C(=O)C(=O)N3CCCCC3C(=O)O2)CC1OC (stereo not given in full) | – | > 4.99 µM | – |
| CC(=O)C1=NN(c2ccccc2)C2(S1)SC(c1ccccc1)(c1ccccc1)c1ccccc12 (stereo not given) | – | > 100 µM | – |
| COc1nc(OC)nc(Sc2ccc(Sc3ccc(Sc4nc(OC)nc(OC)n4)cc3)cc2)n1 | > 100 µM | > 100 µM | – |
| O=C1c2ccccc2C(=O)c2c(O)c(NCCNCCO)cc(O)c21 | 19 µM | 16.1 µM | – |
| Cc1cc(Cl)ccc1NC(=O)C(=O)Cc1occc(=O)c1O | > 100 µM | > 100 µM | TGI (RXF-631 renal): > 100 µM |
| CC1(C)N=C(Oc2ccccc2)n2nccc2N1 | > 100 µM | > 100 µM | – |
| C(=N/NC1=NCCN1)/c1c2ccccc2c(/C=N\NC2=NCCN2)c2ccccc12 | 0.372 µM and 0.298 µM | 2.16 µM and 1.22 µM | GI50 (KM20L2 colon): 0.0553 µM; GI50 (P388 leukemia): 0.0561 µM; TGI (P388 leukemia): 0.571 µM and 1.08 µM; GI50 (P388/ADR leukemia): 86.6 µM; TGI (P388/ADR leukemia): 116 µM; GI50 (SN12K1 renal): 0.0688 µM; TGI (SN12K1 renal): 0.933 µM and 0.222 µM; GI50 (XF 498 CNS): 0.0524 µM |
| Cc1nc2nn(C)cc2c(=O)n1/N=C/c1ccccc1 | > 100 µM | > 100 µM | – |
| CCCOP(=S)(N1CC1)N1CC1 | > 100 µM | > 100 µM | – |
| Cc1cc(C)nc(NS(=O)(=O)c2ccc(NC(=O)c3cccc4c(N)c5ccccc5nc34)cc2)n1 | > 100 µM | > 100 µM | – |
